Data set [1] has as its target T1, Androgen receptor (Homo sapiens) (UniProt P10275).
T1 sequence (whole entry): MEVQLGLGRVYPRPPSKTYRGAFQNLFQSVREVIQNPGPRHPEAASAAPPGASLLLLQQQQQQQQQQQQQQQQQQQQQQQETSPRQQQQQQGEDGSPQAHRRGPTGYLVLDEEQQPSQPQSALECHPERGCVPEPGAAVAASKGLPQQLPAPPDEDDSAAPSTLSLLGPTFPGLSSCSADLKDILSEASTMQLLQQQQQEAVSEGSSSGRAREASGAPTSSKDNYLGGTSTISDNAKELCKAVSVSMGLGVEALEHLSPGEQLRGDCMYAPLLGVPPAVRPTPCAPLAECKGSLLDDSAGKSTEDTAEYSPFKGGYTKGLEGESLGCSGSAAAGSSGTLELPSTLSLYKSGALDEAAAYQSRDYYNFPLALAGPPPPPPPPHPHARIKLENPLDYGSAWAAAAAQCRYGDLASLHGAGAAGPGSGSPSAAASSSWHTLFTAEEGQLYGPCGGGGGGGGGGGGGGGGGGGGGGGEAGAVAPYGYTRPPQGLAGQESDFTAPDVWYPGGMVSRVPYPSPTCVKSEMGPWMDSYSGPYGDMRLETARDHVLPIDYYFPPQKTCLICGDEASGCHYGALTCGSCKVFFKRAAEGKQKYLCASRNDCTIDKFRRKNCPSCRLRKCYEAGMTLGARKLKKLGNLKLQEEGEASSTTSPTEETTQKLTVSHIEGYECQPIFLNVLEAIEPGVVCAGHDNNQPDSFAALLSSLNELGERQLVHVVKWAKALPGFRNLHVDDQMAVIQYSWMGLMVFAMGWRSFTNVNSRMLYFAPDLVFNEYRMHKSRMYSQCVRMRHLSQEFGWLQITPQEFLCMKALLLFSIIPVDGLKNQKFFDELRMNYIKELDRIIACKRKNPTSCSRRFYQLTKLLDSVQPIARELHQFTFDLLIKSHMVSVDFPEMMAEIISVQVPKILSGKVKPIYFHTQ
Nature of the data set: Antagonist activity at recombinant androgen receptor (unknown origin) transfected in human PC-3 cells co-transfected with PSA and luciferase at 10 uM incubated for 24 hrs by dual luciferase reporter gene assay relative to control. It counts as cell-based. In general terms: In a reporter assay the amount or activity of a reporter protein is the signal.

A short description of data set [2]: Effect on androgen receptor expression in human LNCaP cells at 1 and 10 uM incubated for 24 hrs by Western blot analysis. It counts as ADME, cell-based. The note with it: dose 1-10 µM. In general terms: Immunoblotting shows a protein as a band on a membrane.
Data set [3] is described as follows: Effect on glucocorticoid receptor expression in human PC-3 cells at 10 uM incubated for 24 hrs by Western blot analysis. Format: ADME, cell-based. The note with it: pc-3, 24 h.
Another data set has as its target T2, Androgen receptor (Homo sapiens, UniProt P10275).
T2 sequence (P10275 whole entry): T1 sequence (whole entry)
As to the kind of experiment: Antagonist activity at recombinant androgen receptor (unknown origin) transfected in human LNCaP cells co-transfected with PSA and luciferase incubated for 24 hrs by dual luciferase reporter gene assay. Format: cell-based.

Data set [4] concerns the target T3, Androgen receptor (Rattus norvegicus) (UniProt P15207).
T3 sequence (whole entry): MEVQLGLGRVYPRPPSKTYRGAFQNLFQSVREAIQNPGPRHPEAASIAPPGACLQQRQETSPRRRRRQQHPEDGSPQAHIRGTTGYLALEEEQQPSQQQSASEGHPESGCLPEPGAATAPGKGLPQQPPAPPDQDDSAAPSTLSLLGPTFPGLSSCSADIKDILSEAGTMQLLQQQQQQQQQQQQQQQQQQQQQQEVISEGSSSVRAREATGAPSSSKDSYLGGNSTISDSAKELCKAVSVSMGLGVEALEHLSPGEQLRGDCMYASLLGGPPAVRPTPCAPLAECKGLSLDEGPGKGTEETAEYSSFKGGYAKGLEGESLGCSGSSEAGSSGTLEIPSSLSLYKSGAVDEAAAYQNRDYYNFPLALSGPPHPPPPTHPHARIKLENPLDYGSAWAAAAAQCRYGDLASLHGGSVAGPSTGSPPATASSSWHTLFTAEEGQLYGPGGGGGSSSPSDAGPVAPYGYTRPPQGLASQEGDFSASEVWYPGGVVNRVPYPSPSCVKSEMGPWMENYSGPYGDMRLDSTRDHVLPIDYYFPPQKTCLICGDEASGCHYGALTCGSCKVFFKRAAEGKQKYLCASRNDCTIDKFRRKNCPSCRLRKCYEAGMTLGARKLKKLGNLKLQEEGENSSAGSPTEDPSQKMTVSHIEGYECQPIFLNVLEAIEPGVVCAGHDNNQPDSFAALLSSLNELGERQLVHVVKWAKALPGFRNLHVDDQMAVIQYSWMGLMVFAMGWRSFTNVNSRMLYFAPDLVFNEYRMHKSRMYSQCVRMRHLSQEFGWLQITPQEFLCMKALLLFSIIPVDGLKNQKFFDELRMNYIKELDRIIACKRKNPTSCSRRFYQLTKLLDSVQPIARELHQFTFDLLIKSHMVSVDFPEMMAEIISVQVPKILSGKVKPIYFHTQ
The note with it: filed as antagonist, time 1.0 min.

Data set [5] addresses T4, Glucocorticoid receptor (Homo sapiens) (UniProt P04150).
T4 sequence (whole entry): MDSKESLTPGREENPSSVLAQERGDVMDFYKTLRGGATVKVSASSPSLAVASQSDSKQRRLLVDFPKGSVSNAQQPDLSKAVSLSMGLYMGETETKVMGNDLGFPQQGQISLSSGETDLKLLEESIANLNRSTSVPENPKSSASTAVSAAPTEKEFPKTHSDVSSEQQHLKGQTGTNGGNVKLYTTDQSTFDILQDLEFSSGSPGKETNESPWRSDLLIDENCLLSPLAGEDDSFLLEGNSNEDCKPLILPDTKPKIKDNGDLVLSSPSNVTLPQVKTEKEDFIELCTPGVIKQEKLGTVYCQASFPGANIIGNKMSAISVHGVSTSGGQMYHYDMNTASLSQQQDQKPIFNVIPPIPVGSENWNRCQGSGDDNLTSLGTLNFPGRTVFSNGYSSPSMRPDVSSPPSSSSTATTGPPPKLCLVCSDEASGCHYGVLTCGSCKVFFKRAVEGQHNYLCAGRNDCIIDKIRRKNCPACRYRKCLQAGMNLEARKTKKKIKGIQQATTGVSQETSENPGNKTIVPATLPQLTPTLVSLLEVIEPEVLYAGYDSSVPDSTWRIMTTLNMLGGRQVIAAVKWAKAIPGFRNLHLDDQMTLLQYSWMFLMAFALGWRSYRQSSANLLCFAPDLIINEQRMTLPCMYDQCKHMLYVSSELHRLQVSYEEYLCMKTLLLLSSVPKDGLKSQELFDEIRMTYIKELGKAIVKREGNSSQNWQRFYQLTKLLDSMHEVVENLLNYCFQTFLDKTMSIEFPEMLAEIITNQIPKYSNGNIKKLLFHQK
The note with it: filed as antagonist, time 1.0 min.

In another data set the test system is LNCaP. Nature of the data set: Antiproliferative activity against human LNCAP cells assessed as reduction in cell growth incubated for 72 hrs by MTT assay.
The nature of data set [6]: Antiproliferative activity against human 22Rv1 cells assessed as reduction in cell growth incubated for 72 hrs by MTT assay. The note with it: H22, 72 h. (In general: Tetrazolium assays rely on reduction of a dye to a coloured formazan, in cell work by metabolically active cells.)

Take `CCOC(=O)C1CCN(C(=O)Cc2ccc(N(Cc3ccccc3)C(=O)COc3ccccc3)cc2)CC1`: the inhibition (commonly how much of the control response was suppressed) in data set [1] is more than 20%.

As to `COc1cccc(-c2ccc(N3CCN(C(=O)CN(Cc4ccccc4)C(=O)c4ccccc4C)CC3)nn2)c1`, the inhibition in data set [1] was more than 20%.

Take `COc1ccc([C@H](NC(=O)c2cccc(S(=O)(=O)N3C[C@H](C)C[C@@H](C)C3)c2)c2nccn2C)cc1`: the inhibition in data set [1] was more than 20%.

`CCOC(=O)c1ccc(NC(=O)c2cccc(S(=O)(=O)N3CCCc4ccccc43)c2)s1`: the Activity result in data set [2] and in data set [3] was “Non-Toxic” each time. Besides, the IC50 (usually the concentration that inhibits the measured activity by half) at Androgen receptor worked out at 2.03 µM. Moreover, the Kapp in data set [4] came to 15 µM.

As to `COc1ccccc1[C@H]1[C@H](Oc2cccc(C#N)c2)C(=O)N1Cc1cccc(N2CCCC2=O)c1`, the inhibition in data set [1] was more than 20%.

As for `NC(=O)c1ccn(-c2cccc(NC(=O)C3(NC(=O)NCc4ccccc4)CCCC3)c2)n1`, the inhibition in data set [1] is more than 20%.

With `Cc1nc(-c2ccc(C(C)C)c(S(=O)(=O)Nc3cccc(C#N)c3)c2)cs1`, the inhibition in data set [1] was more than 20%.

In the case of `CCc1ccc(-c2nn(C)c(=O)c3c2CCCC3)cc1S(=O)(=O)NCc1cccc(OC)c1`, in data set [1], the inhibition is more than 20%.

In turn, `CC#C[C@]1(O)CC[C@H]2[C@@H]3CCC4=CC(=O)CCC4=C3[C@@H](c3ccc(N(C)C)cc3)C[C@@]21C` returned a Kapp in data set [5] of 32 µM.

On to `COc1cc2cc(C(=O)N[C@H](C)C(=O)Nc3nc4ccccc4s3)[nH]c2c(OC)c1OC`, for which, in data set [1], the inhibition is more than 20%.

Regarding `CNC(=O)c1ccc(N2C(=S)N(c3ccc(C#N)c(C(F)(F)F)c3)C(=O)C2(C)C)cc1F` [ENZALUTAMIDE], the IC50 is 7.9 µM in the data set with LNCaP and more than 40 µM in data set [6]. For the same compound, in data set [4], the Kapp amounted to 24 µM.
